Experimental data as given in patent publication US7759375B2, “Epothilones C, D, E, and F, preparation and compositions” (priority 1996, dated 2010).
In brackets after ≈: the same amount, converted by molar mass. Read-outs that look alike come from different tables or passages of the source.

Assays:
[1] = biological target: T1, purified tubulin from pigs' brain (Sus scrofa, UniProt P02554); type: biochemical, pig; settings: 0.9 mg of tubulin/ml, 1 μM sample concentration; for Time up to the half-maximal polymerization, Agent [%] (relative activity in % of the control): control = 100, lowest values indicate the best activity; for Time up to the half-maximal polymerization of the control, Agent [s]: average of experiments w-z, control 190 s; for Time up to the half-maximal polymerization of the control, measurement w: independent experiment w; for Time up to the half-maximal polymerization of the control, measurement x: independent experiment x; for Time up to the half-maximal polymerization of the control, measurement y: independent experiment y; for Time up to the half-maximal polymerization of the control, measurement z: independent experiment z
T1 construct: purified tubulin from pigs' brain; from tissue; host or cells: pig brain
T1 sequence (P02554 whole entry): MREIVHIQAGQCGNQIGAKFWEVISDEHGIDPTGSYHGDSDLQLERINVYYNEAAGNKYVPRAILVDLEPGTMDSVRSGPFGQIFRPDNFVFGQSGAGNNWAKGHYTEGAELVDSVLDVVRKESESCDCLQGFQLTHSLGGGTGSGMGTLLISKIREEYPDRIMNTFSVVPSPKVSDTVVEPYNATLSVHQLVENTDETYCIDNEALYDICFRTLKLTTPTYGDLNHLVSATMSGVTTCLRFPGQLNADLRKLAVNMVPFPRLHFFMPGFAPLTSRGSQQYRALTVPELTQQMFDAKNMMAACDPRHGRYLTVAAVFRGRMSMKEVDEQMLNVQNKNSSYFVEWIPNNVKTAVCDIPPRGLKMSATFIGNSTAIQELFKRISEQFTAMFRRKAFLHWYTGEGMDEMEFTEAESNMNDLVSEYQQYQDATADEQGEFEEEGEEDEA
T1 sequence (P02550 whole entry partner): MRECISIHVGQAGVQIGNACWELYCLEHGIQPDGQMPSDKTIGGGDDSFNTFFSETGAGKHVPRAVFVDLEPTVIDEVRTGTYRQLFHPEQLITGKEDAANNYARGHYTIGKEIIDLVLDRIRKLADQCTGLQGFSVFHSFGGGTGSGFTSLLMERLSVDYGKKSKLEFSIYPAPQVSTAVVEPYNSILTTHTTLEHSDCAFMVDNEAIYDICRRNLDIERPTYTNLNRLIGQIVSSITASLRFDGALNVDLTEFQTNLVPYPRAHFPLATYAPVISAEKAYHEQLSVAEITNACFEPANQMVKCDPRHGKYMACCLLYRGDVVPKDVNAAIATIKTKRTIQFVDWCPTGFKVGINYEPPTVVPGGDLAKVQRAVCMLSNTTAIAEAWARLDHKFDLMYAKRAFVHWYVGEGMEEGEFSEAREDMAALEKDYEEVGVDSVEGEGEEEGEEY
Experimental: (§1) The epothilones according to the invention were tested with cell cultures (Table 2) and for promotion of polymerization (Table 3).
The polymerization test is an in vitro test using purified tubulin from pigs' brain. Evaluation is carried out photometrically.

Mouse fibroblasts L 929 = assay: Growth inhibition in cell culture, mouse fibroblasts L929; type: cell-based
Experimental: as §1

[2] = test system: A-549 (carcinoma of the lung); assay: Growth inhibition in cell culture, A-549; type: cell-based, human
Experimental: as §1

U-937 (lymphoma) = assay: Growth inhibition in cell culture, U-937; type: cell-based, human
Experimental: as §1

[3] = test system: KB-3.1 (carcinoma of the cervix); assay: Growth inhibition in cell culture, KB-3.1; type: cell-based, human
Experimental: as §1

K-562 (leukaemia) = assay: Growth inhibition in cell culture, K-562; type: cell-based, human
Experimental: as §1

HL-60 (leukaemia) = assay: Growth inhibition in cell culture, HL-60; type: cell-based, human
Experimental: as §1

[4] = test system: KB-VI (carcinoma of the cervix multires); assay: Growth inhibition in cell culture, KB-VI; type: cell-based, human
Experimental: as §1

[5] = test system: A-498 (carcinoma of the kidney); assay: Growth inhibition in cell culture, A-498; type: cell-based, human
Experimental: as §1

[6] = KB-3.1 (carcinoma of the cervix)
[7] = KB-VI (carcinoma of the cervix multires)
[8] = A-498 (carcinoma of the kidney)

Row | Compound | Time up to the half-maximal polymerization, Agent [%] (relative activity in % of the control) [1] | Time up to the half-maximal polymerization of the control, Agent [s] [1] | Time up to the half-maximal polymerization of the control, measurement w [1] | Time up to the half-maximal polymerization of the control, measurement x [1] | Time up to the half-maximal polymerization of the control, measurement y [1] | Time up to the half-maximal polymerization of the control, measurement z [1] | IC-50 (Mouse fibroblasts L 929; Mouse fibroblasts L 929) | IC-50 ([2]; A-549 (carcinoma of the lung)) | IC-50 (U-937 (lymphoma); U-937 (lymphoma)) | IC-50 [3, 6] | IC-50 (K-562 (leukaemia); K-562 (leukaemia)) | IC-50 (HL-60 (leukaemia); HL-60 (leukaemia)) | IC-50 [4, 7] | IC-50 [5, 8] | IC-50 (Mouse fibroblasts L 929) | IC-50 [5] | IC-50 [2] | IC-50 (U-937 (lymphoma)) | IC-50 [3] | IC-50 (K-562 (leukaemia)) | other results
1 | C/C(=C\c1csc(C)n1)[C@@H]1C[C@@H]2O[C@@H]2CCC[C@H](C)[C@H](O)[C@@H](C)C(=O)C(C)(C)[C@@H](O)CC(=O)O1 [Epothilone A, epothilone A, reference compound] | 39% | 74 s | 95 s | 60 s | 70 s | 70 s | 4 ng/mL | 0.7 ng/mL | 0.2 ng/mL | 1 ng/mL | 0.3 ng/mL | 0.2 ng/mL | 0.3 ng/mL |  |  |  |  |  |  |  | IC50 (Mouse fibroblasts L 929; Mouse fibroblasts, L929, concentration which reduces the growth by 50%): 4 ng/mL (≈ 8.1 nM); IC50 ([3]; HeLa KB-3.1 (human), concentration which reduces the growth by 50%): 1 ng/mL (≈ 2.03 nM)
2 | C/C(=C\c1csc(C)n1)[C@@H]1C[C@@H]2O[C@]2(C)CCC[C@H](C)[C@H](O)[C@@H](C)C(=O)C(C)(C)[C@@H](O)CC(=O)O1 [Epothilone B, epothilone B, reference compound] | 14% | 26 s |  | 23 s | 25 s | 30 s | 1 ng/mL | 0.1 ng/mL | 0.2 ng/mL | 0.6 ng/mL | 0.3 ng/mL | 0.2 ng/mL | 0.3 ng/mL | 1.5 ng/mL |  |  |  |  |  |  | 
3 | C/C(=C\c1csc(C)n1)[C@@H]1C/C=C\CCC[C@H](C)[C@H](O)[C@@H](C)C(=O)C(C)(C)[C@@H](O)CC(=O)O1 [Epothilone C] | 49% | 94 s | 125 s | 76 s | 95 s | 80 s | 100 ng/mL | 30 ng/mL | 10 ng/mL | 20 ng/mL | 20 ng/mL | 10 ng/mL | 15 ng/mL | 150 ng/mL |  |  |  |  |  |  | 
4 | C/C1=C/C[C@@H](/C(C)=C/c2csc(C)n2)OC(=O)C[C@H](O)C(C)(C)C(=O)[C@H](C)[C@@H](O)[C@@H](C)CCC1 [Epothilone D] | 56% | 106 s | 125 s | 73 s | 120 s |  | 20 ng/mL | 10 ng/mL | 3 ng/mL | 12 ng/mL | 10 ng/mL | 3 ng/mL | 3 ng/mL | 20 ng/mL |  |  |  |  |  |  | 
5 | C/C(=C\c1csc(CO)n1)[C@@H]1C[C@@H]2O[C@@H]2CCC[C@H](C)[C@H](O)[C@@H](C)C(=O)C(C)(C)[C@@H](O)CC(=O)O1 [Epothilone E] |  |  |  |  |  |  |  |  |  |  |  |  |  |  | 20 ng/mL | 20 ng/mL | 3 ng/mL | 1 ng/mL | 5 ng/mL | 2 ng/mL | IC50 (Mouse fibroblasts L 929): 20 ng/mL (≈ 39.2 nM); IC50 [3]: 5 ng/mL (≈ 9.81 nM); IC-50 (HL-60 (leukaemia)): 1 ng/mL; IC-50 [4]: 5 ng/mL
6 | C/C(=C\c1csc(CO)n1)[C@@H]1C[C@@H]2O[C@]2(C)CCC[C@H](C)[C@H](O)[C@@H](C)C(=O)C(C)(C)[C@@H](O)CC(=O)O1 [Epothilone F] |  |  |  |  |  |  |  |  |  |  |  |  |  |  | 1.5 ng/mL | 3 ng/mL | 0.1 ng/mL | 0.2 ng/mL | 0.5 ng/mL | 0.5 ng/mL | IC-50 (HL-60 (leukaemia)): 0.3 ng/mL; IC-50 [4]: 0.6 ng/mL
